The values that follow come from US5098826A, “Detection, isolation and purification of Clostridium difficile toxin A with toxin receptors” (Virginia Tech Intellectual Properties, Inc., priority 1990, dated 1992).

The target of one experiment is T1, C. difficile toxin A (Clostridioides difficile, UniProt P16154).
T1 construct: The organism was cultured, and the toxin A was purified from the culture filtrate; made in house; host or cells: C. difficile VPI strain 10463 (natural producer, culture filtrate; not recombinant)
The experiment is described as follows: Crossed immunoelectrophoresis (X-IEP) toxin A binding assay. More on the design: species or system Clostridium difficile. The conditions noted are these: 100 μg toxin A mixed with 500 μg/ml conjugate, on ice 10 minutes, electrophoresis at 4° C., pH 8.6. The protocol:
100 μg toxin A and 500 μg/ml of each of the oligosaccharide-HSA conjugates of Table 1 in PBS were mixed and incubated on ice for 10 minutes, then 5 μl of this mixture was assayed by X-IEP for toxin A binding on a 5×5 cm glass slide substantially as described by Lyerly et al., J. Clin. Microbiol. 17, 72-78 (1983). Briefly, wells (1 mm in diameter) were cut in gels composed of 1.2% (wt/vol) low electroendosmotic agarose (Sigma Chemical Co.) in 0.025M Tris-Tricine buffer (0.6 g agarose in 50 ml buffer) (pH 8.6). The Tris-Tricine buffer is prepared by combining the following and adding deionized water up to a volume of 1 L: Tris, 9.8 g; Ca-lactate, 0.106 g; Tricine, 4.3 g; NaN3, 0.2 g. For the first dimension, oligosaccharide-HSA sample (5 μl) was placed in a sample well in the lower corner of the plate. 0.1% bromphenol blue was placed in an upper corner well as a tracing dye, and the plate was subjected to electrophoresis at 10 V/cm at constant current and 4° C. The second dimension of the plate consisted of a 1.2% (wt/vol) agarose gel containing 0.1 ml of goat antiserum to C. difficile culture filtrate. Electrophoresis was performed at 10 V/cm for about 3 hours at 4° C. Gels were washed in 20 mM sodium phosphate with 130 mM NaCl, pH 7.4, stained with a staining solution (5 g Coomassie Blue R-250, 450 ml EtOH, […], and 450 ml deionized H2 O), and de-stained in the staining solution minus Coomassie Blue.
The principle behind the X-IEP assay is that the rate of migration of toxin A in an electric field is dependent on the net charge of the molecule, which is dependant on its isoelectric point and the pH of the electrophoresis medium. Toxin A has a slight negative charge at pH 8.6, which is the pH at which the X-IEP was carried out. The toxin migrates slowly in the applied electric field. HSA, on the other hand, has a relatively high net negative charge at pH 8.6. […]

A further experiment concerns the target toxin A (Clostridioides difficile, UniProt P16154). The conditions noted are these: cited from earlier work; for toxin A binding: Krivan et al., U.S. Pat. No. 4,863,852, Clark et al.

Chain of toxin A (P16154 whole entry, looked up): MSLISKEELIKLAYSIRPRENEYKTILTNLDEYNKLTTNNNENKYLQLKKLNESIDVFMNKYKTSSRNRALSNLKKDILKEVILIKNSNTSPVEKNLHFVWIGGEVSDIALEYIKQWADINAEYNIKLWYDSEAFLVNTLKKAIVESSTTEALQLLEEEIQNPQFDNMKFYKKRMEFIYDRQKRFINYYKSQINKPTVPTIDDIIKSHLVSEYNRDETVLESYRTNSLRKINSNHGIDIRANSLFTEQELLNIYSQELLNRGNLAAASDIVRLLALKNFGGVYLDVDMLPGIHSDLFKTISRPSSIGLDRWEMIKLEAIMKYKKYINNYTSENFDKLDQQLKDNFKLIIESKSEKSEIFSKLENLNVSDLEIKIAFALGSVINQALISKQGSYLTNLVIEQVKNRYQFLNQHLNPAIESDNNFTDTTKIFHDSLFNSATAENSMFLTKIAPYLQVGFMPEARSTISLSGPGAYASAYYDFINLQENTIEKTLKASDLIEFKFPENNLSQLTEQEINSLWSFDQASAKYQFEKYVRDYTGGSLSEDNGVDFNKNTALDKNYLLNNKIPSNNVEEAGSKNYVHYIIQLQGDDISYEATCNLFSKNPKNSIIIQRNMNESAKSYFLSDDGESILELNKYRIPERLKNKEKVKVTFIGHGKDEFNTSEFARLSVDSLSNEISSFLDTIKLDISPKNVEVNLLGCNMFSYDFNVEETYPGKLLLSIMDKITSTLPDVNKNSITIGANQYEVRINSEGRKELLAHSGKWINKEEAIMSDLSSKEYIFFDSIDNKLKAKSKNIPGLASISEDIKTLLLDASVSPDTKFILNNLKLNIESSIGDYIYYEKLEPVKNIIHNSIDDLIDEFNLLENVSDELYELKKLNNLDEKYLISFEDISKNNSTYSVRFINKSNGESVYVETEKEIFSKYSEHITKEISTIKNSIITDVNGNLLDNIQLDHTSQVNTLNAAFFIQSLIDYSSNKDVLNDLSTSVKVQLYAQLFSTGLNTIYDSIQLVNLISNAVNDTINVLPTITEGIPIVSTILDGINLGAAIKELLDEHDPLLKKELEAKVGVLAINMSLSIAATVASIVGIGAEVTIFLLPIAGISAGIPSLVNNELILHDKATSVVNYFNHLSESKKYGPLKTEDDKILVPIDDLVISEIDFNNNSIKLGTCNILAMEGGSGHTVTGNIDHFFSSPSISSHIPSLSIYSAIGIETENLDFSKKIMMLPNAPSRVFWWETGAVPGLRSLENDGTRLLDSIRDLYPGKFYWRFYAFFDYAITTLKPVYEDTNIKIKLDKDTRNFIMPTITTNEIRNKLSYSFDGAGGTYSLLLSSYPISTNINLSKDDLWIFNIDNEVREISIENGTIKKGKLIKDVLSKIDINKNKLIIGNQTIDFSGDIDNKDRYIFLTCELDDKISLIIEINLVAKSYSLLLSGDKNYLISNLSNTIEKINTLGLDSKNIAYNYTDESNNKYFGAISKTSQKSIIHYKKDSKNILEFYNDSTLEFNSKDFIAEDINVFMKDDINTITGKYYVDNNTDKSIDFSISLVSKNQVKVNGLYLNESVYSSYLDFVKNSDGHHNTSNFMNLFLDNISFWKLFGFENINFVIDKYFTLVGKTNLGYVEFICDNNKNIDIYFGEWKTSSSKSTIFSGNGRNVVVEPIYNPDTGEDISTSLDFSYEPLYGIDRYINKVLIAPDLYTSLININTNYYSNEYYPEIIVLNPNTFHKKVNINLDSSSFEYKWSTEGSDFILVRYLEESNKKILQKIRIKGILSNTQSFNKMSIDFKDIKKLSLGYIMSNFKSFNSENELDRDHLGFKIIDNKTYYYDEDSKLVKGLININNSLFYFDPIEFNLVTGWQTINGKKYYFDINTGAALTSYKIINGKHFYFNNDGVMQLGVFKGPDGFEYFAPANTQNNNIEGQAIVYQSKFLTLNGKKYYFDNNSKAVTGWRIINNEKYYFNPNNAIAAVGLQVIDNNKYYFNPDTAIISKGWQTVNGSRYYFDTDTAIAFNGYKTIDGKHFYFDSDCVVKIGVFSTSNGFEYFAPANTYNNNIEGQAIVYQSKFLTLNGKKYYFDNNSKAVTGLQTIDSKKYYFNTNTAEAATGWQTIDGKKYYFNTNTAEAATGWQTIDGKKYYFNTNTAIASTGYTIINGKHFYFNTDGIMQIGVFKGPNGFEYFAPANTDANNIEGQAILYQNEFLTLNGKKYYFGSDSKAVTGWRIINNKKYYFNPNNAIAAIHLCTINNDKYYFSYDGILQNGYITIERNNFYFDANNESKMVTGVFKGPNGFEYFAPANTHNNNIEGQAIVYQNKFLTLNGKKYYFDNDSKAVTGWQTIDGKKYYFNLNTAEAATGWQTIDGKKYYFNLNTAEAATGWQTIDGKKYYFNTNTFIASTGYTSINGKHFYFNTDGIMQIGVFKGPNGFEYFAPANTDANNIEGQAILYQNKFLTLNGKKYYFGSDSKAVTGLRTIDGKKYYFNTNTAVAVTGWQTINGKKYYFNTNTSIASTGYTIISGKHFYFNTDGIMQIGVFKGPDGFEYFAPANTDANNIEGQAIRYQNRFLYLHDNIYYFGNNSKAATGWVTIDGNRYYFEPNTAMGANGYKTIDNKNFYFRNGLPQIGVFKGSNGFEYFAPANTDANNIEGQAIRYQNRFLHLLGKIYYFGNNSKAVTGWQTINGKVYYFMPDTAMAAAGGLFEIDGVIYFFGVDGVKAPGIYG

For “Secretory Component: human protein known to contain the X antigen”, the “Toxin A Binding X-IEP (altered migration of toxin A)” value (“Toxin A Binding X-IEP” below) with C. difficile toxin A (listed as SC) was “same behavior”. With `CC(=O)N[C@H]1C(O)O[C@H](CO)[C@@H](O[C@@H]2O[C@H](CO)[C@H](O)[C@H](O[C@H]3O[C@H](CO)[C@H](O)[C@H](O)[C@H]3O)[C@H]2O)[C@@H]1O` (some centres unmarked) [Galα(1→3)Galβ(1→4)GlcNAc], the “toxin A binding at 37° C.” value at toxin A (37° C., U.S. Pat. No. 4,863,852) is on record as “not detected”. In addition, the “toxin A binding” value at toxin A is recorded as “binds”. Also, the “temperature of maximal binding of toxin A” value at toxin A (U.S. Pat. No. 4,863,852) was 4 °C. On to `CC(=O)N[C@H]1[C@H](O[C@H]2[C@@H](O)[C@@H](CO)O[C@@H](O[C@H]3[C@H](O)[C@@H](O)C(O)O[C@@H]3CO)[C@@H]2O)O[C@H](CO)[C@@H](O[C@@H]2O[C@H](CO)[C@H](O)[C@H](O)[C@H]2O)[C@@H]1O` (some centres unmarked) [LNnT, Galβ(1→4)GlcNAcβ(1→3)Galβ(1→4)Glc], for which the “Toxin A Binding X-IEP” value on C. difficile toxin A is “did not bind the toxin”. Further, on toxin A, the “toxin A binding” value is given as “prevents toxin A from binding”. Take `CC(=O)N[C@H]1C(O)O[C@H](CO)[C@@H](O[C@@H]2O[C@H](CO)[C@H](O)[C@H](O[C@H]3O[C@H](CO)[C@H](O)[C@H](O)[C@H]3O)[C@H]2O[C@@H]2O[C@@H](C)[C@@H](O)[C@@H](O)[C@@H]2O)[C@@H]1O` (some centres unmarked) [Galα(1→3)[Fucα-(1→2)]Galβ(1→4)GlcNAc, Galα(1→3)[Fucα(1→2)]Galβ(1→4)GlcNAc]: at toxin A, the “toxin A binding” value is given as “does not bind”.

B1: Carcinoembryonic Antigen: human protein known to contain the X antigen (protein, UniProt P06731 35-685, looked up)
Cell adhesion molecule CEACAM5: KLTIESTPFNVAEGKEVLLLVHNLPQHLFGYSWYKGERVDGNRQIIGYVIGTQQATPGPAYSGREIIYPNASLLIQNIIQNDTGFYTLHVIKSDLVNEEATGQFRVYPELPKPSISSNNSKPVEDKDAVAFTCEPETQDATYLWWVNNQSLPVSPRLQLSNGNRTLTLFNVTRNDTASYKCETQNPVSARRSDSVILNVLYGPDAPTISPLNTSYRSGENLNLSCHAASNPPAQYSWFVNGTFQQSTQELFIPNITVNNSGSYTCQAHNSDTGLNRTTVTTITVYAEPPKPFITSNNSNPVEDEDAVALTCEPEIQNTTYLWWVNNQSLPVSPRLQLSNDNRTLTLLSVTRNDVGPYECGIQNELSVDHSDPVILNVLYGPDDPTISPSYTYYRPGVNLSLSCHAASNPPAQYSWLIDGNIQQHTQELFISNITEKNSGLYTCQANNSASGHSRTTVKTITVSAELPKPSISSNNSKPVEDKDAVAFTCEPEAQNTTYLWWVNGQSLPVSPRLQLSNGNRTLTLFNVTRNDARAYVCGIQNSVSANRSDPVTLDVLYGPDTPIISPPDSSYLSGANLNLSCHSASNPSPQYSWRINGIPQQHTQVLFIAKITPNNNGTYACFVSNLATGRNNSIVKSITVSASGTSPGLSA
Take B1: in the experiment with C. difficile toxin A (listed as CEA), the “Toxin A Binding X-IEP” value is given as “same behavior”.
